According to US9034826B2, “Use of epidermal growth factor for the morphofunctional restoration of peripheral nerves in diabetic neuropathy” (Centro de Ingenieria Genetica y Biotecnologia, priority 2006, dated 2015):

Columns and labels:
Format in all cases: in vivo, Wistar rats
diabetic rats [1] = assay: Motor conduction velocity, sciatic-tibial route, prevention study (Example 1); details: 75 μg EGF/ml, day 60
Procedure: Male Wistar, with 200-250 grams of body weight, received a subcutaneous injection of streptozotocin, at 75 mg/kg in sodium citrate buffer. Water was then replaced by a 10% sucrose solution during the next 24 h, to prevent deaths caused by hypoglycemia. Glucose levels in blood were monitored every morning during the next 72 hours after the injection. Only animals with sustained glucose values above 15 mmol/L were used. Rats were housing at 4 per cage and fed in the conventional way. A concurrent group of other 80 rats received citrate buffer without streptozotocin and was handled in a similar fashion to the diabetic group. The average value for glycemia during the 72 hours in this group was 5.87 mmol/L.
All treatments were conducted during 8 weeks, starting one week after streptozotocin injection. The composition used contained 75 μg of human recombinant EGF/ml. Several types of observations were conducted in the animals under study:
Fifteen animals were used in each experimental group. In diabetic neuropathy conduction velocity is generally diminished.
(§1) Distal supra-maximal stimulation in the sciatic-tibial route using bipolar electrodes is was used to study motor conduction. Determination of the conduction velocity in the sensory routes was carried out by applying a stimulus at a proximal point in the tail and measure it 3 cm away.

diabetic rats [2] = assay: Nociceptive threshold (NCT) pain test, reversion of established diabetic neuropathy (Example 2); details: 100 μg EGF in 1 ml i.p. 3 days a week for one month, day 120 after induction of diabetes
Procedure: The pain test, by application of an increasing pressure in the tail, was carried out at days 28 and 56 after initiation of the treatment, using 10 animals per each one of the experimental groups. NCT, expressed in grams, was determined by using an Ugo Basile type analgesimeter to apply a gradually increasing pressure to the tail of the animals until they developed a withdrawal reflex. In human diabetic neuropathy the nociceptive threshold is reduced.
(§2) The aim of this study was to evaluate the neurorestoration effect of the pharmaceutical composition. Male Wistar rats between 200-250 grams of body is weight received a subcutaneous injection of streptozotocin at 75 mg/kg in sodium citrate buffer, and were allowed to evolve until 120 days after disease induction. All rats used in this experiment had shown sustained glucose levels above 15 mmol/L. Animals were handled and fed as previously described. A concurrent control group was set, where animals received saline instead of streptozotocin. […] After this period an electrophysiological characterization of all rats were done and animals were split in two random treatment groups:
Group II. Animals received the pharmaceutical composition with 100 μg of EGF in 1 ml, 3 days a week, by intraperitoneal route. […]

diabetic rats [3] = assay: Conduction velocity of motor fibers, reversion study (Example 2); details: established diabetic neuropathy, 100 μg EGF in 1 ml i.p. 3 days a week for one month, day 120 after induction of diabetes
Procedure: as §1, §2
Group II. Animals received the pharmaceutical composition with 100 μg of EGF in 1 ml, 3 days a week, by intraperitoneal route.
To check the effect of the pharmaceutical composition on the restoration of sensory and motor fibers the conduction velocity of an electric impulse was measured at day 120 after induction of diabetes, after treating the animals with the pharmaceutical composition or saline. […]

right sciatic nerve = assay: Laser Doppler Perfusion Imaging of blood perfusion of a peripheral nerve, reversion study (Example 2); details: established diabetic neuropathy, 100 μg EGF in 1 ml i.p. 3 days a week for one month
From the text: The right sciatic nerve of rats was used as a model. Ten animals were included for each one of the experimental groups. A similar number of non diabetic rats were used to calculate the reference values. A Laser Doppler Perfusion Imaging (LDPI) system was used. Data of perfusion in peripheral tissues to the nerve were programmed as zero values. Control animals received saline during two months before the measurement. All determinations were done under the same conditions of anesthesia and environmental conditions. They are reflected in Table 5. The aim of this study was to evaluate the neurorestoration effect of the pharmaceutical composition. Male Wistar rats between 200-250 grams of body is weight received a subcutaneous injection of streptozotocin at 75 mg/kg in sodium citrate buffer, and were allowed to evolve until 120 days after disease induction. All rats used in this experiment had shown sustained glucose levels above 15 mmol/L. Animals were handled and fed as previously described. A concurrent control group was set, where animals received saline instead of streptozotocin. […] After this period an electrophysiological characterization of all rats were done and animals were split in two random treatment groups: Group II. Animals received the pharmaceutical composition with 100 μg of EGF in 1 ml, 3 days a week, by intraperitoneal route. […]

In the case of “EGF containing pharmaceutical composition: Composition with human recombinant EGF: 75 μg/ml in Example 1, 100 μg in 1 ml in Example 2, given intraperitoneally”, the “MCV (motor conduction velocity)” value (diabetic rats [1]; 1 ml i.p. once weekly (Treatment group 1)) is reported as 45 ± 13 m/s, the “MCV (motor conduction velocity)” value (diabetic rats [1]; 1 ml i.p. three times a week (Treatment group 3)) is reported as 56 ± 11 m/s and the “UNC (NCT test)” value (diabetic rats [2]) is reported as 80 ± 5 grams. The “Velocity (conduction velocity of motor fibers)” value (diabetic rats [3]) was 54.8 ± 1.66 m/s and the “Laser Doppler perfusion of the sciatic nerve” value (right sciatic nerve) was 934 ± 60.18 LDPI Units.
